Measurements reported in ChEMBL document CHEMBL3046948, “Synthesis and SAR investigation of natural phenylpropene-derived methoxylated cinnamaldehydes and their novel Schiff bases as potent antimicrobial and antioxidant agents” (2013).
≈ marks a conversion by molar mass, not a printed value. Calls of active or inactive are those of the source. The rule behind the calls is not given here.

Assays:
Type in all cases: functional
Aspergillus sydowii = assay: Antimicrobial activity against Aspergillus sydowii MTCC 4335 assessed as growth inhibition after 5 days by broth microdilution method
Aspergillus parasiticus = assay: Antimicrobial activity against Aspergillus parasiticus MTCC 2797 assessed as growth inhibition after 5 days by broth microdilution method
Aspergillus niger = assay: Antimicrobial activity against Aspergillus niger MTCC 404 assessed as growth inhibition after 5 days by broth microdilution method
Pichia kudriavzevii = assay: Antimicrobial activity against Pichia kudriavzevii MTCC 231 assessed as growth inhibition after 24 hr by broth microdilution method
Candida albicans = assay: Antimicrobial activity against Candida albicans MTCC 3017 assessed as growth inhibition after 24 hr by broth microdilution method
Enterobacter cloacae = assay: Antimicrobial activity against Enterobacter cloacae MTCC 509 assessed as growth inhibition after 24 hr by broth microdilution method
Pseudomonas aeruginosa = assay: Antimicrobial activity against Pseudomonas aeruginosa MTCC 424 assessed as growth inhibition after 24 hr by broth microdilution method
Klebsiella pneumoniae = assay: Antimicrobial activity against Klebsiella pneumoniae MTCC 109 assessed as growth inhibition after 24 hr by broth microdilution method
Escherichia coli = assay: Antimicrobial activity against Escherichia coli MTCC 43 assessed as growth inhibition after 24 hr by broth microdilution method
Burkholderia cepacia = assay: Antimicrobial activity against Burkholderia cepacia MTCC 438 assessed as growth inhibition after 24 hr by broth microdilution method
Micrococcus luteus = assay: Antimicrobial activity against Micrococcus luteus MTCC 2470 assessed as growth inhibition after 24 hr by broth microdilution method
Bacillus subtilis = assay: Antimicrobial activity against Bacillus subtilis MTCC 121 assessed as growth inhibition after 24 hr by broth microdilution method
Staphylococcus aureus = assay: Antimicrobial activity against Staphylococcus aureus MTCC 3160 assessed as growth inhibition after 24 hr by broth microdilution method
Trichophyton rubrum = assay: Antimicrobial activity against Trichophyton rubrum MTCC 296 assessed as growth inhibition after 5 days by broth microdilution method

Structure (SMILES): CN(C)c1ccc(/C=C/C=O)cc1
- MIC (Aspergillus sydowii): inactive
- MIC (Aspergillus parasiticus): inactive
- MIC (Aspergillus niger): inactive
- MIC (Pichia kudriavzevii): inactive
- MIC (Candida albicans): inactive
- MIC (Enterobacter cloacae; MTCC 509, 24 h): 11.4 mM (≈ 2000 µg/mL)
- MIC (Pseudomonas aeruginosa): inactive
- MIC (Klebsiella pneumoniae): inactive
- MIC (Escherichia coli): inactive
- MIC (Burkholderia cepacia): inactive
- MIC (Micrococcus luteus; MTCC 2470, 24 h): 11.4 mM (≈ 2000 µg/mL)
- MIC (Bacillus subtilis): inactive
- MIC (Staphylococcus aureus): inactive
- MIC (Trichophyton rubrum): inactive

Structure (SMILES): O=C/C=C/c1ccc2c(c1)OCO2
- MIC (Aspergillus sydowii; MTCC 4335, 120 h): 0.35 mM (≈ 61.7 µg/mL)
- MIC (Aspergillus parasiticus; MTCC 2797, 120 h): 0.71 mM (≈ 125 µg/mL)
- MIC (Aspergillus niger; MTCC 404, 120 h): 1.42 mM (≈ 250 µg/mL)
- MIC (Pichia kudriavzevii; MTCC 231, 24 h): 0.35 mM (≈ 61.7 µg/mL)
- MIC (Candida albicans; MTCC 3017, 24 h): 0.35 mM (≈ 61.7 µg/mL)
- MIC (Enterobacter cloacae; MTCC 509, 24 h): 1.42 mM (≈ 250 µg/mL)
- MIC (Pseudomonas aeruginosa; MTCC 424, 24 h): 0.35 mM (≈ 61.7 µg/mL)
- MIC (Klebsiella pneumoniae; MTCC 109, 24 h): 1.42 mM (≈ 250 µg/mL)
- MIC (Escherichia coli; MTCC 43, 24 h): 2.84 mM (≈ 500 µg/mL)
- MIC (Burkholderia cepacia; MTCC 438, 24 h): 0.71 mM (≈ 125 µg/mL)
- MIC (Micrococcus luteus; MTCC 2470, 24 h): 2.84 mM (≈ 500 µg/mL)
- MIC (Bacillus subtilis; MTCC 121, 24 h): 2.84 mM (≈ 500 µg/mL)
- MIC (Staphylococcus aureus; MTCC 3160, 24 h): 2.84 mM (≈ 500 µg/mL)
- MIC (Trichophyton rubrum; MTCC 296, 120 h): 0.35 mM (≈ 61.7 µg/mL)

Structure (SMILES): CCOc1ccc(/C=C/C=O)cc1OC
- MIC (Aspergillus sydowii; MTCC 4335, 120 h): 4.85 mM (≈ 1000 µg/mL)
- MIC (Aspergillus parasiticus; MTCC 2797, 120 h): 2.42 mM (≈ 499 µg/mL)
- MIC (Aspergillus niger; MTCC 404, 120 h): 4.85 mM (≈ 1000 µg/mL)
- MIC (Pichia kudriavzevii; MTCC 231, 24 h): 4.85 mM (≈ 1000 µg/mL)
- MIC (Candida albicans; MTCC 3017, 24 h): 2.42 mM (≈ 499 µg/mL)
- MIC (Enterobacter cloacae; MTCC 509, 24 h): 9.7 mM (≈ 2000 µg/mL)
- MIC (Pseudomonas aeruginosa; MTCC 424, 24 h): 4.85 mM (≈ 1000 µg/mL)
- MIC (Klebsiella pneumoniae; MTCC 109, 24 h): 9.7 mM (≈ 2000 µg/mL)
- MIC (Escherichia coli; MTCC 43, 24 h): 9.7 mM (≈ 2000 µg/mL)
- MIC (Burkholderia cepacia; MTCC 438, 24 h): 4.85 mM (≈ 1000 µg/mL)
- MIC (Micrococcus luteus; MTCC 2470, 24 h): 4.85 mM (≈ 1000 µg/mL)
- MIC (Bacillus subtilis; MTCC 121, 24 h): 4.85 mM (≈ 1000 µg/mL)
- MIC (Staphylococcus aureus; MTCC 3160, 24 h): 2.42 mM (≈ 499 µg/mL)
- MIC (Trichophyton rubrum; MTCC 296, 120 h): 2.42 mM (≈ 499 µg/mL)

Structure (SMILES): CCOC(=O)/C=C/c1ccc2c(c1)OCO2
- MIC (Aspergillus sydowii; MTCC 4335, 120 h): 0.14 mM (≈ 30.8 µg/mL)
- MIC (Aspergillus parasiticus; MTCC 2797, 120 h): 0.14 mM (≈ 30.8 µg/mL)
- MIC (Aspergillus niger; MTCC 404, 120 h): 0.56 mM (≈ 123 µg/mL)
- MIC (Pichia kudriavzevii): inactive
- MIC (Candida albicans): inactive
- MIC (Enterobacter cloacae): inactive
- MIC (Pseudomonas aeruginosa; MTCC 424, 24 h): 0.56 mM (≈ 123 µg/mL)
- MIC (Klebsiella pneumoniae): inactive
- MIC (Escherichia coli): inactive
- MIC (Burkholderia cepacia): inactive
- MIC (Micrococcus luteus): inactive
- MIC (Bacillus subtilis): inactive
- MIC (Staphylococcus aureus): inactive
- MIC (Trichophyton rubrum): inactive

Structure (SMILES): CC(C)OC(=O)/C=C/c1ccccc1
- MIC (Aspergillus sydowii): inactive
- MIC (Aspergillus parasiticus): inactive
- MIC (Aspergillus niger): inactive
- MIC (Pichia kudriavzevii): inactive
- MIC (Candida albicans): inactive
- MIC (Enterobacter cloacae): inactive
- MIC (Pseudomonas aeruginosa): inactive
- MIC (Klebsiella pneumoniae): inactive
- MIC (Escherichia coli): inactive
- MIC (Burkholderia cepacia): inactive
- MIC (Micrococcus luteus): inactive
- MIC (Bacillus subtilis): inactive
- MIC (Staphylococcus aureus): inactive
- MIC (Trichophyton rubrum): inactive

Structure (SMILES): O=Cc1ccc2c(c1)OCO2 [PIPERONAL]
- MIC (Aspergillus sydowii; MTCC 4335, 120 h): 3.33 mM (≈ 500 µg/mL)
- MIC (Aspergillus parasiticus; MTCC 2797, 120 h): 3.33 mM (≈ 500 µg/mL)
- MIC (Aspergillus niger; MTCC 404, 120 h): 3.33 mM (≈ 500 µg/mL)
- MIC (Pichia kudriavzevii; MTCC 231, 24 h): 0.83 mM (≈ 125 µg/mL)
- MIC (Candida albicans; MTCC 3017, 24 h): 0.83 mM (≈ 125 µg/mL)
- MIC (Enterobacter cloacae; MTCC 509, 24 h): 3.33 mM (≈ 500 µg/mL)
- MIC (Pseudomonas aeruginosa; MTCC 424, 24 h): 0.83 mM (≈ 125 µg/mL)
- MIC (Klebsiella pneumoniae; MTCC 109, 24 h): 3.33 mM (≈ 500 µg/mL)
- MIC (Escherichia coli; MTCC 43, 24 h): 3.33 mM (≈ 500 µg/mL)
- MIC (Burkholderia cepacia): inactive
- MIC (Micrococcus luteus; MTCC 2470, 24 h): 3.33 mM (≈ 500 µg/mL)
- MIC (Bacillus subtilis; MTCC 121, 24 h): 6.66 mM (≈ 1000 µg/mL)
- MIC (Staphylococcus aureus; MTCC 3160, 24 h): 3.33 mM (≈ 500 µg/mL)
- MIC (Trichophyton rubrum; MTCC 296, 120 h): 0.83 mM (≈ 125 µg/mL)

Structure (SMILES): O=CCCc1ccccc1 [DIHYDROCINNAMALDEHYDE]
- MIC (Aspergillus sydowii; MTCC 4335, 120 h): 3.72 mM (≈ 499 µg/mL)
- MIC (Aspergillus parasiticus; MTCC 2797, 120 h): 14.9 mM (≈ 2000 µg/mL)
- MIC (Aspergillus niger; MTCC 404, 120 h): 7.45 mM (≈ 1000 µg/mL)
- MIC (Pichia kudriavzevii; MTCC 231, 24 h): 3.72 mM (≈ 499 µg/mL)
- MIC (Candida albicans; MTCC 3017, 24 h): 3.72 mM (≈ 499 µg/mL)
- MIC (Enterobacter cloacae; MTCC 509, 24 h): 7.45 mM (≈ 1000 µg/mL)
- MIC (Pseudomonas aeruginosa; MTCC 424, 24 h): 7.45 mM (≈ 1000 µg/mL)
- MIC (Klebsiella pneumoniae; MTCC 109, 24 h): 7.45 mM (≈ 1000 µg/mL)
- MIC (Escherichia coli; MTCC 43, 24 h): 7.45 mM (≈ 1000 µg/mL)
- MIC (Burkholderia cepacia; MTCC 438, 24 h): 14.9 mM (≈ 2000 µg/mL)
- MIC (Micrococcus luteus; MTCC 2470, 24 h): 7.45 mM (≈ 1000 µg/mL)
- MIC (Bacillus subtilis; MTCC 121, 24 h): 7.45 mM (≈ 1000 µg/mL)
- MIC (Staphylococcus aureus; MTCC 3160, 24 h): 14.9 mM (≈ 2000 µg/mL)
- MIC (Trichophyton rubrum; MTCC 296, 120 h): 3.72 mM (≈ 499 µg/mL)

Structure (SMILES): Cc1ccc(/C=C/C=O)c([N+](=O)[O-])c1
- MIC (Aspergillus sydowii): inactive
- MIC (Aspergillus parasiticus): inactive
- MIC (Aspergillus niger): inactive
- MIC (Pichia kudriavzevii): inactive
- MIC (Candida albicans): inactive
- MIC (Enterobacter cloacae; MTCC 509, 24 h): 10.5 mM (≈ 2000 µg/mL)
- MIC (Pseudomonas aeruginosa; MTCC 424, 24 h): 2.61 mM (≈ 499 µg/mL)
- MIC (Klebsiella pneumoniae; MTCC 109, 24 h): 10.5 mM (≈ 2000 µg/mL)
- MIC (Escherichia coli; MTCC 43, 24 h): 2.61 mM (≈ 499 µg/mL)
- MIC (Burkholderia cepacia; MTCC 438, 24 h): 2.61 mM (≈ 499 µg/mL)
- MIC (Micrococcus luteus; MTCC 2470, 24 h): 2.61 mM (≈ 499 µg/mL)
- MIC (Bacillus subtilis; MTCC 121, 24 h): 2.61 mM (≈ 499 µg/mL)
- MIC (Staphylococcus aureus; MTCC 3160, 24 h): 10.5 mM (≈ 2000 µg/mL)
- MIC (Trichophyton rubrum): inactive

Structure (SMILES): C/C=C/c1ccc2c(c1)OCO2 [ISOSAFROLE]
- MIC (Aspergillus sydowii): inactive
- MIC (Aspergillus parasiticus): inactive
- MIC (Aspergillus niger): inactive
- MIC (Pichia kudriavzevii): inactive
- MIC (Candida albicans): inactive
- MIC (Enterobacter cloacae): inactive
- MIC (Pseudomonas aeruginosa): inactive
- MIC (Klebsiella pneumoniae): inactive
- MIC (Escherichia coli): inactive
- MIC (Burkholderia cepacia): inactive
- MIC (Micrococcus luteus): inactive
- MIC (Bacillus subtilis): inactive
- MIC (Staphylococcus aureus): inactive
- MIC (Trichophyton rubrum; MTCC 296, 120 h): 3.08 mM (≈ 500 µg/mL)

Structure (SMILES): C/C=C/c1ccc(OC)cc1 [ANETHOLE]
- MIC (Aspergillus sydowii): inactive
- MIC (Aspergillus parasiticus): inactive
- MIC (Aspergillus niger): inactive
- MIC (Pichia kudriavzevii; MTCC 231, 24 h): 6.74 mM (≈ 999 µg/mL)
- MIC (Candida albicans; MTCC 3017, 24 h): 6.74 mM (≈ 999 µg/mL)
- MIC (Enterobacter cloacae): inactive
- MIC (Pseudomonas aeruginosa): inactive
- MIC (Klebsiella pneumoniae): inactive
- MIC (Escherichia coli): inactive
- MIC (Burkholderia cepacia): inactive
- MIC (Micrococcus luteus): inactive
- MIC (Bacillus subtilis): inactive
- MIC (Staphylococcus aureus): inactive
- MIC (Trichophyton rubrum): inactive

Structure (SMILES): COc1ccc(/C=C/C=O)cc1 [PARA-METHOXY CINNAMALDEHYDE]
- MIC (Aspergillus sydowii; MTCC 4335, 120 h): 3.08 mM (≈ 500 µg/mL)
- MIC (Aspergillus parasiticus; MTCC 2797, 120 h): 3.08 mM (≈ 500 µg/mL)
- MIC (Aspergillus niger; MTCC 404, 120 h): 3.08 mM (≈ 500 µg/mL)
- MIC (Pichia kudriavzevii; MTCC 231, 24 h): 0.77 mM (≈ 125 µg/mL)
- MIC (Candida albicans; MTCC 3017, 24 h): 0.77 mM (≈ 125 µg/mL)
- MIC (Enterobacter cloacae; MTCC 509, 24 h): 3.08 mM (≈ 500 µg/mL)
- MIC (Pseudomonas aeruginosa; MTCC 424, 24 h): 0.77 mM (≈ 125 µg/mL)
- MIC (Klebsiella pneumoniae; MTCC 109, 24 h): 3.08 mM (≈ 500 µg/mL)
- MIC (Escherichia coli; MTCC 43, 24 h): 3.08 mM (≈ 500 µg/mL)
- MIC (Burkholderia cepacia): inactive
- MIC (Micrococcus luteus; MTCC 2470, 24 h): 3.08 mM (≈ 500 µg/mL)
- MIC (Bacillus subtilis; MTCC 121, 24 h): 6.16 mM (≈ 999 µg/mL)
- MIC (Staphylococcus aureus; MTCC 3160, 24 h): 3.08 mM (≈ 500 µg/mL)
- MIC (Trichophyton rubrum; MTCC 296, 120 h): 0.77 mM (≈ 125 µg/mL)
